Assay results published in patent publication US12139492B2 (Endotarget Inc., priority 2021, dated 2024).
Read-outs that look alike come from different tables or passages of the source.

How the values were obtained:
[1] = test system: Mino cells; test: Antiproliferative effect, MTS cell viability assay, Mino cells; format: cell-based; conditions: Homo sapiens, MINO, Mino mantle cell lymphoma cells; read-out: IC50 (anti-proliferation) Mino cells
In short: (§1)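 MTS read-out, A490 of formazan from metabolically active cells; compound 0–10 μM (0, 0.001, 0.01, 0.1, 1, 10 μM), 72 h exposure.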

[2] = test system: JeKo-1 cells; test: Antiproliferative effect, MTS cell viability assay, JeKo-1 cells; format: cell-based; conditions: Homo sapiens; JeKo-1 mantle cell lymphoma cells; read-out: IC50 (anti-proliferation) JeKO-1 cells
In short: as §1

[3] = biological target: BTK (Homo sapiens, UniProt Q06187); test: Degradation of BTK protein in Namalwa cells (Western blot; DC50, Dmax); conditions: for DC50: cell line not given
[4] = read-out: DC50 (BTK degradation), concentration giving 50% reduction of BTK expression level
[5] = read-out: Dmax (BTK degradation)

BTK, sequence (Q06187 whole entry): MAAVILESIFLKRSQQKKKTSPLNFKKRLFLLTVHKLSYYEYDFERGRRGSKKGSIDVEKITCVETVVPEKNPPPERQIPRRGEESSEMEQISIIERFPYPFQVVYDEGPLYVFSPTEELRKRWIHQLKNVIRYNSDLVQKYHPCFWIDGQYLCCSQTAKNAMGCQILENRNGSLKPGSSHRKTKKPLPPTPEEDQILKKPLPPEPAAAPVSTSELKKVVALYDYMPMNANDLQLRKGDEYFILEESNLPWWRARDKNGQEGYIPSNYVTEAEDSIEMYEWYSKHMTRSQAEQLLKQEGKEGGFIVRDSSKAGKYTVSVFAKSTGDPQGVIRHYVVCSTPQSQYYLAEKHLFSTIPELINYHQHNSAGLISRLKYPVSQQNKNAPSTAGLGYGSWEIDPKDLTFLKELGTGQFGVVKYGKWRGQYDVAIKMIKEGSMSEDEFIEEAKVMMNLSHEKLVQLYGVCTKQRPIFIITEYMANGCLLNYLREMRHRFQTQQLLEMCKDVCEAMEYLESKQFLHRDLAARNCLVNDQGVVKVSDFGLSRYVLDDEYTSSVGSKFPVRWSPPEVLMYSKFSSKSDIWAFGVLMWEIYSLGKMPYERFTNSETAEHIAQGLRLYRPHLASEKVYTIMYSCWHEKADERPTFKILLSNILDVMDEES

Row | Dmax [3] [%] | DC50 ([3]; BTK degradation) [nM] | DC50 [3, 4] [nM] | Dmax [3, 5] [%] | Compound | IC50 [1] [nM] | IC50 [2] [nM]
1 | > 75 | 10 to 50 | – | – | NC(=O)c1c(-c2ccc(Oc3ccccc3)cc2)nn2c1NCC[C@H]2C1CCN(C2CCN(C(=O)N3CCN(CC4CCN(c5ccc6c(c5)C(=O)N(C5CCC(=O)NC5=O)C6=O)CC4)CC3)CC2)CC1 (stereo partly drawn) [Compound 391, (7S)-7-(1′-(4-((1-(2-(2,6-dioxopiperidin-3-yl)-1,3-dioxoisoindolin-5-yl)piperidin-4-yl)methyl)piperazine-1-carbonyl)-[1,4′-bipiperidin]-4-yl)-2-(4-phenoxyphenyl)-4,5,6,7-tetrahydropyrazolo[1,5-a]pyrimidine-3-carboxamide] | > 10000 | > 10000
2 | > 90 | 10 to 50 | – | – | NC(=O)c1c(-c2ccc(Oc3ccccc3)cc2)nn2c1NCC[C@H]2C1CCN(C2CCN(C(=O)N3CCN(CC4CCN(c5ccc6c(c5)CN(C5CCC(=O)NC5=O)C6=O)CC4)CC3)CC2)CC1 (stereo partly drawn) [Compound 392, (7S)-7-(1′-(4-((1-(2-(2,6-dioxopiperidin-3-yl)-1-oxoisoindolin-5-yl)piperidin-4-yl)methyl)piperazine-1-carbonyl)-[1,4′-bipiperidin]-4-yl)-2-(4-phenoxyphenyl)-4,5,6,7-tetrahydropyrazolo[1,5-a]pyrimidine-3-carboxamide] | < 1000 | 1000 to 10000
3 | – | – | 10 to 50 | > 75 | NC(=O)c1c(-c2ccc(Oc3ccccc3)cc2)nn2c1NCC[C@H]2C1CCN(C2CCN(C(=O)N3CCC(CC4CCN(c5ccc6c(c5)C(=O)N(C5CCC(=O)NC5=O)C6=O)CC4)CC3)CC2)CC1 (stereo partly drawn) [Compound 393, (7S)-7-(1′-(4-((1-(2-(2,6-dioxopiperidin-3-yl)-1,3-dioxoisoindolin-5-yl)piperidin-4-yl)methyl)piperidine-1-carbonyl)-[1,4′-bipiperidin]-4-yl)-2-(4-phenoxyphenyl)-4,5,6,7-tetrahydropyrazolo[1,5-a]pyrimidine-3-carboxamide] | 1000 to 10000 | 1000 to 10000
4 | – | – | 10 to 50 | > 75 | NC(=O)c1c(-c2ccc(Oc3ccccc3)cc2)nn2c1NCC[C@H]2C1CCN(C2CCN(C(=O)N3CCC(CC4CCN(c5ccc6c(c5)CN(C5CCC(=O)NC5=O)C6=O)CC4)CC3)CC2)CC1 (stereo partly drawn) [Compound 394, (7S)-7-(1′-(4-((1-(2-(2,6-dioxopiperidin-3-yl)-1-oxoisoindolin-5-yl)piperidin-4-yl)methyl)piperidine-1-carbonyl)-[1,4′-bipiperidin]-4-yl)-2-(4-phenoxyphenyl)-4,5,6,7-tetrahydropyrazolo[1,5-a]pyrimidine-3-carboxamide] | < 1000 | 1000 to 10000
5 | – | – | 10 to 50 | > 75 | NC(=O)c1c(-c2ccc(Oc3ccccc3)cc2)nn2c1NCC[C@H]2C1CCN(C2CCN(C(=O)N3CCC(CN4CCC(c5ccc6c(c5)C(=O)N(C5CCC(=O)NC5=O)C6=O)CC4)CC3)CC2)CC1 (stereo partly drawn) [Compound 395, (7S)-7-(1′-(4-((4-(2-(2,6-dioxopiperidin-3-yl)-1,3-dioxoisoindolin-5-yl)piperidin-1-yl)methyl)piperidine-1-carbonyl)-[1,4′-bipiperidin]-4-yl)-2-(4-phenoxyphenyl)-4,5,6,7-tetrahydropyrazolo[1,5-a]pyrimidine-3-carboxamide] | 1000 to 10000 | 1000 to 10000
6 | – | – | 10 to 50 | > 75 | NC(=O)c1c(-c2ccc(Oc3ccccc3)cc2)nn2c1NCC[C@H]2C1CCN(C2CCN(C(=O)N3CCC(CN4CCC(c5ccc6c(c5)CN(C5CCC(=O)NC5=O)C6=O)CC4)CC3)CC2)CC1 (stereo partly drawn) [Compound 396, (7S)-7-(1′-(4-((4-(2-(2,6-dioxopiperidin-3-yl)-1-oxoisoindolin-5-yl)piperidin-1-yl)methyl)piperidine-1-carbonyl)-[1,4′-bipiperidin]-4-yl)-2-(4-phenoxyphenyl)-4,5,6,7-tetrahydropyrazolo[1,5-a]pyrimidine-3-carboxamide] | 1000 to 10000 | > 10000
7 | – | – | > 50 | > 50 | NC(=O)c1c(-c2ccc(Oc3ccccc3)cc2)nn2c1NCC[C@H]2C1CCN(CC2CCN(C(=O)N3CCN(c4ccc5c(c4)CN(C4CCC(=O)NC4=O)C5=O)CC3)CC2)CC1 (stereo partly drawn) [Compound 398, (7S)-7-(1-((1-(4-(2-(2,6-dioxopiperidin-3-yl)-1-oxoisoindolin-5-yl)piperazine-1-carbonyl)piperidin-4-yl)methyl)piperidin-4-yl)-2-(4-phenoxyphenyl)-4,5,6,7-tetrahydropyrazolo[1,5-a]pyrimidine-3-carboxamide] | > 10000 | > 10000
8 | – | – | > 50 | > 50 | NC(=O)c1c(-c2ccc(Oc3ccccc3)cc2)nn2c1NCC[C@H]2C1CCN(CC2CCN(C(=O)N3CCN(Cc4ccc5c(c4)C(=O)N(C4CCC(=O)NC4=O)C5=O)CC3)CC2)CC1 (stereo partly drawn) [Compound 399, (7S)-7-(1-((1-(4-((2-(2,6-dioxopiperidin-3-yl)-1,3-dioxoisoindolin-5-yl)methyl)piperazine-1-carbonyl)piperidin-4-yl)methyl)piperidin-4-yl)-2-(4-phenoxyphenyl)-4,5,6,7-tetrahydropyrazolo[1,5-a]pyrimidine-3-carboxamide] | 1000 to 10000 | > 10000
9 | – | – | > 50 | > 50 | NC(=O)c1c(-c2ccc(Oc3ccccc3)cc2)nn2c1NCC[C@H]2C1CCN(CC2CCN(C(=O)N3CCN(Cc4ccc5c(c4)CN(C4CCC(=O)NC4=O)C5=O)CC3)CC2)CC1 (stereo partly drawn) [Compound 400, (7S)-7-(1-((1-(4-((2-(2,6-dioxopiperidin-3-yl)-1-oxoisoindolin-5-yl)methyl)piperazine-1-carbonyl)piperidin-4-yl)methyl)piperidin-4-yl)-2-(4-phenoxyphenyl)-4,5,6,7-tetrahydropyrazolo[1,5-a]pyrimidine-3-carboxamide] | > 10000 | > 10000
10 | – | – | 10 to 50 | > 90 | NC(=O)c1c(-c2ccc(Oc3ccccc3)cc2)nn2c1NCC[C@H]2C1CCN(CC2CCN(C(=O)N3CCN(C4CCN(c5ccc6c(c5)C(=O)N(C5CCC(=O)NC5=O)C6=O)CC4)CC3)CC2)CC1 (stereo partly drawn) [Compound 401] | 1000 to 10000 | 1000 to 10000
11 | – | – | 10 to 50 | > 90 | NC(=O)c1c(-c2ccc(Oc3ccccc3)cc2)nn2c1NCC[C@H]2C1CCN(CC2CCN(C(=O)N3CCN(C4CCN(c5ccc6c(c5)CN(C5CCC(=O)NC5=O)C6=O)CC4)CC3)CC2)CC1 (stereo partly drawn) [Compound 402, (7S)-7-(1-((1-(4-(1-(2-(2,6-dioxopiperidin-3-yl)-1-oxoisoindolin-5-yl)piperidin-4-yl)piperazine-1-carbonyl)piperidin-4-yl)methyl)piperidin-4-yl)-2-(4-phenoxyphenyl)-4,5,6,7-tetrahydropyrazolo[1,5-a]pyrimidine-3-carboxamide] | < 1000 | 1000 to 10000
12 | – | – | 10 to 50 | > 90 | NC(=O)c1c(-c2ccc(Oc3ccccc3)cc2)nn2c1NCC[C@H]2C1CCN(CC2CCN(C(=O)N3CCC(N4CCN(c5ccc6c(c5)C(=O)N(C5CCC(=O)NC5=O)C6=O)CC4)CC3)CC2)CC1 (stereo partly drawn) [Compound 403, (7S)-7-(1-((1-(4-(4-(2-(2,6-dioxopiperidin-3-yl)-1,3-dioxoisoindolin-5-yl)piperazin-1-yl)piperidine-1-carbonyl)piperidin-4-yl)methyl)piperidin-4-yl)-2-(4-phenoxyphenyl)-4,5,6,7-tetrahydropyrazolo[1,5-a]pyrimidine-3-carboxamide] | < 1000 | < 1000
